In US20040077879A1, “Bis (amino acid) molecular scaffolds” (priority 2002, published 2004):
Converted amounts (≈) assume the structure as drawn. Like-named read-outs stand apart in the source and are kept apart here.

Assay: Solubility (dissolved, centrifuged, HPLC peak integrated relative to a tyrosine standard)
Type: physicochemical
From the text: Pure three-mer scaffolds and five-mer scaffolds with extended rod-like structures in useful amounts have been synthesized. Three units of building block 1:pro4(2S4S) (Sequence 1) were assembled to form the molecular rod 19 using sequential solid phase synthesis on a 46 μmole scale (Scheme 4). The synthesis took place on an AM resin with a Rink Amide linker available from Novabiochem. […] After coupling three monomers, an Fmoc-Tyr(t-Bu)-OAt residue was coupled to increase the hydrophobicity of the final scaffold so that it would bind to a C18 column. After removal of the tyrosine Fmoc group, the amine terminus rapidly attacked the adjacent methyl ester to form a diketopiperazine […] (indicated in the sequence as cyclo-(Tyr)). The flexible oligomer 17 was cleaved from the resin and its mass was confirmed by reverse phase liquid chromatography with mass spectrometry (RP-LCMS). The carboxybenzyl (Cbz) groups were then removed by hydrogenolysis to obtain 18. The flexible oligomer 18 was converted into the rigidified scaffold 19 through the parallel formation of two diketopiperazine rings by exposure to 20% piperidine/DMF over 48 hours at 4° C.[25] […] Solubility was measured by dissolving the compound in 0.1% TFA, centrifuging it, injecting the solution into an HPLC and integrating the resulting peak relative to a tyrosine standard. […]

Row | solubility (10% D2O/H2O, unpurified material, read-out: soluble in 10% D2O/H2O) | solubility (water, read-out: soluble in water) | Structure (SMILES)
1 | 5000 µg/mL (≈ 5.54 mM) |  | COC(=O)[C@]1(N)C[C@H]2C(=O)N[C@]3(C[C@H]4C(=O)N[C@]5(C[C@H]6C(=O)N[C@]7(C[C@H]8C(=O)N[C@@]9(CN[C@H](C(=O)N[C@@H](Cc%10ccc(O)cc%10)C(N)=O)C9)C(=O)N8C7)C(=O)N6C5)C(=O)N4C3)C(=O)N2C1 [scaffold 20]
2 |  | > 5000 µg/mL | NC(=O)[C@@H]1C[C@@]2(CN1)NC(=O)[C@@H]1C[C@@]3(CN1C2=O)NC(=O)[C@@H]1C[C@@]2(CN1C3=O)NC(=O)[C@H](Cc1ccc(O)cc1)NC2=O [scaffold 19]
